Tested on: Human T cells transfected with reprogramming plasmids
Experiment: T cell reprogramming efficiency, flow cytometry of iPSC surface markers
Format: cell-based
Settings: VPA from around day 2-3 post transfection; three T cell donors; versus no VPA
Protocol: Flow Cytometry Analysis and Sorting Single cell dissociated reprogramming pools were resuspended in chilled staining buffer. Conjugated primary antibodies, including SSEA4-FITC, TRA181-Alexa Fluor-647 and CD30-PE (BD Biosciences), were added to the cell solution and incubated on ice for 15 min. All antibodies were used at 7-10 μL in 100 μL staining buffer per million cells. The resuspended dissociated single cells in staining buffer were spun down and resuspended in staining buffer now containing a ROCK inhibitor and maintained on ice for flow cytometry sorting. Flow cytometry sorting was performed on FACS Aria II (BD Biosciences). The sorted cells were directly ejected into 96-well plates at concentrations of 3 and 9 events per well. Each well was prefilled with FMM2. Upon completion of the sort, 96-well plates were incubated for colony formation and expansion. Seven to ten days post sort, the cells were passaged. Subsequent passages in FMM2 were done routinely upon 75-90% confluency. Flow cytometry analysis was performed on Guava EasyCyte 8 HT (Millipore) and analyzed using FCS Express 4 (De Novo Software). Human T cells from three different donors were transfected with the above reprogramming plasmids on day 0. […] The expression of iPSC surface markers (SSEA4, TRA-1-81, and CD30) was analyzed by flow cytometry.

## CCCC(CCC)C(=O)O [VPA, valproic acid]
  percentage of SSEA4+TRA-1-81+CD30+ iPSC cells in the population: significantly increased

— patent US20240034999A1, “IMPROVED REPROGRAMMING, MAINTENANCE AND PRESERVATION FOR INDUCED PLURIPOTENT STEM CELLS” (Fate Therapeutics, Inc., priority 2020, published 2024)
